Each structure is given as a SMILES string. Read-outs that look alike come from different tables or passages of the source.

One test has as its target ENPP-1 ECD (Homo sapiens (Human), UniProt P22413). As to the kind of experiment: Inhibition of ENPP1 hydrolysis of 2′,3′-cGAMP (Assay 1).
In test [1] the target is ENPP1 on MDA-MB-231 cells (Homo sapiens (Human), UniProt P22413). As to the kind of experiment: Inhibition of ENPP1 hydrolysis of AMP p-nitrophenyl ester on MDA-MB-231 cells (Assay 2). In kind it is cell-based. The protocol: Inhibition of ENPP1 Hydrolysis of AMP p-Nitrophenyl Ester on MDA-MB-231 Cells (Assay 2)
Chain of ENPP1 on MDA-MB-231 cells (P22413 whole entry): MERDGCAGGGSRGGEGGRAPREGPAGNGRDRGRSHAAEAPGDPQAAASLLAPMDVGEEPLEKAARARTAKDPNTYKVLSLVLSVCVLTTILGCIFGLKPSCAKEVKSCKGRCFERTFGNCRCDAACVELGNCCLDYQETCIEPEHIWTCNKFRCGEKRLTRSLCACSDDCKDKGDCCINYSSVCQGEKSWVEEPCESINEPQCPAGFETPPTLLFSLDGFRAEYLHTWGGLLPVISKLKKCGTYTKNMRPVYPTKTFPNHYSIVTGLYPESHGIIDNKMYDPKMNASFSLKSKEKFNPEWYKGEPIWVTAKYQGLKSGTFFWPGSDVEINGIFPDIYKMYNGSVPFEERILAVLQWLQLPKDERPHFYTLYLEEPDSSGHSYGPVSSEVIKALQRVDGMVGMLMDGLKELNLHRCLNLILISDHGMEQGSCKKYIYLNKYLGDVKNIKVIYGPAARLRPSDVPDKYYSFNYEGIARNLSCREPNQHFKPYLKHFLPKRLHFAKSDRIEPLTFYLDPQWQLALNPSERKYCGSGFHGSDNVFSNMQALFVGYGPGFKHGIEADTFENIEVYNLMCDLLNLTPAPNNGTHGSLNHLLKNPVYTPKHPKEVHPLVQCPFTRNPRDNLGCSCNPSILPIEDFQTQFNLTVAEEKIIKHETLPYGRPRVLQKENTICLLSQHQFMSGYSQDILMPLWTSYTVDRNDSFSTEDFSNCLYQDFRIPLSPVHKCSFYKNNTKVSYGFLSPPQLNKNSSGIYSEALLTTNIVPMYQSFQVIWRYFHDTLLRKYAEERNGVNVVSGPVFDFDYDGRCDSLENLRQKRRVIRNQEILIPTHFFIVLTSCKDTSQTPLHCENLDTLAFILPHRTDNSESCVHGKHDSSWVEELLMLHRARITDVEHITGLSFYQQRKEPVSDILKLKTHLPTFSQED
ENPP1 is normally expressed on the human metastatic breast cancer cell line MDA-MB-231. Hydrolysis of the p-nitrophenyl ester of AMP (pNP-AMP), an isostere of ATP, is selectively catalyzed by ENPP1 in the supernatant of MDA-MB-231 cell cultures. Inhibition of the hydrolysis of pNP-AMP by MDA-MB-231 at pH 7.4 and 37° C. is a good model of physiologically relevant activity of membrane-bound ENPP1 at disease-relevant expression levels.
MDA-MB-231 cells were harvested using TypLE Express Enzyme digestion and suspended in 100 μL of Leibovitz's L-15 Medium, 20% FBS, seeding the cells in a 96-well assay plate with 4.5×10^4 cells/well. Cells were incubated at 37 C with 1% CO2 for 24 h. In a separate dilution plate, 2× of top dose of compound was prepared in phenol-red free 1640 medium without FBS and then 1:3 serial diluted in the same medium. The cell culture medium of L15 medium was aspirated carefully and cells were washed with PBS once, and 50 μL per well of test compound or DMSO blank are added to the assay plate. Substrate mix (50 μL; 0.5 mM pNP-AMP in phenol-red free 1640 media without FBS) was added for a pNP-AMP final concentration of 0.25 mM. The system was incubated at 37° C. for 3 h.

[2] abbreviates: read-out: Assay 1 KI values (class), 2,3-cGAMP 24 μM, AMP-Glo luminescence, KI from IC50 via Cheng/Prusoff.
Where [3] appears, read: read-out: Assay 1 KI, 2,3-cGAMP 24 μM, AMP-Glo luminescence, KI from IC50 via Cheng/Prusoff.
[4] abbreviates: pNP-AMP 0.25 mM, MDA-MB-231 cells, 37° C. 3 h, KI,app from IC50 via Cheng/Prusoff, read-out: Assay 2 KI, app.
[5] abbreviates: pNP-AMP 0.25 mM, MDA-MB-231 cells, 37° C. 3 h, KI,app from IC50 via Cheng/Prusoff, read-out: Assay 2 KI,app values (class).
Setting [6] is: Assay 1 KI values (class), 2,3-cGAMP 24 μM, AMP-Glo luminescence, KI from IC50 via Cheng/Prusoff.

Chain of ENPP-1 ECD (P22413 98-925): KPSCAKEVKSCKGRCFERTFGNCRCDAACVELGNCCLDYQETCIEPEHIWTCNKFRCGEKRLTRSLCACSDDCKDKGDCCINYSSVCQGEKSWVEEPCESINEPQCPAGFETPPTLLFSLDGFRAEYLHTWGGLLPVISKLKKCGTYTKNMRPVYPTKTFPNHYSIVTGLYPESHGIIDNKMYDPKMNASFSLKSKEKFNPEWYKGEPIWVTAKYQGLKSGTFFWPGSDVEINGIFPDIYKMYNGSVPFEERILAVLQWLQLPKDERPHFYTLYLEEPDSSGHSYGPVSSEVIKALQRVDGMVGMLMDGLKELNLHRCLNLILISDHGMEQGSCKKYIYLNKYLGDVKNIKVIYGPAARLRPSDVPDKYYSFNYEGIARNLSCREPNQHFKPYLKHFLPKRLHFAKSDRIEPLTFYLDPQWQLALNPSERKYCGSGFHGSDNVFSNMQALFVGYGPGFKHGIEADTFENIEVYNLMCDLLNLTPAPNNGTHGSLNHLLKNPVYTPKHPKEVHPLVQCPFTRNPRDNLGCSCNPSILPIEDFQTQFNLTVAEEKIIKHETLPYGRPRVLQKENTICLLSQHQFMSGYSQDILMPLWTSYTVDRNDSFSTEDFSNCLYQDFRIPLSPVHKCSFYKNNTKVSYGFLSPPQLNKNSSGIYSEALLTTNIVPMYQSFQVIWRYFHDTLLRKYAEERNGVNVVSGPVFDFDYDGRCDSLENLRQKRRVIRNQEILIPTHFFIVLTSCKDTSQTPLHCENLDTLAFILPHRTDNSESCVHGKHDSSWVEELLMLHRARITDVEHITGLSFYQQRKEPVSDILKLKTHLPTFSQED
Procedure for ENPP-1 ECD: Test compounds were plated in a 3× dilution scheme in a 384 well plate.

As for `Cc1nc2ncnn2c(N(C)C)c1Cc1cccc(N)c1`, the Ki on ENPP-1 ECD is 110 nM; in test [1] it was 1400 nM.

As to `Cc1nc2ncnn2c(N(C)C)c1Cc1ccc([S@@](C)(=N)=O)cc1` (single isomer, unassigned) [Compound 1b], the Ki is under 3 nM on ENPP-1 ECD (setting [2]), 0.015 nM at ENPP-1 ECD (setting [3]), 1.67 nM in test [1] (setting [4]) and under 10 nM in test [1] (setting [5]).

With `Cc1nc2ncnn2c(N2CCCC2)c1Cc1ccc([S@](C)(=N)=O)cc1` (single isomer, unassigned) [Compound 8a], the Ki at ENPP-1 ECD (setting [2]) is under 3 nM; on ENPP-1 ECD (setting [3]) it was 0.054 nM; in test [1] (setting [4]), 9.73 nM; in test [1] (setting [5]), under 10 nM.

With `Cc1cc2ncnn2c(N(C)C)c1Cc1ccc([S@](C)(=N)=O)cc1` (single isomer, unassigned) [Compound 28a], the Ki at ENPP-1 ECD (setting [2]) is under 3 nM; on ENPP-1 ECD (setting [3]), 0.00806 nM; in test [1] (setting [4]), 0.56 nM; in test [1] (setting [5]), under 10 nM.

Regarding `Cc1nc2ncnn2c(N(C)C)c1Cc1ccc([S@@](C)(=N)=O)cc1` (single isomer, unassigned) [Compound 49a], the Ki is under 3 nM on ENPP-1 ECD (setting [2]), 0.0236 nM on ENPP-1 ECD (setting [3]), 1.59 nM in test [1] (setting [4]) and under 10 nM in test [1] (setting [5]).

Take `Cc1c(Cc2ccc([S@@](C)(=N)=O)cc2)c(N(C)C)n2ncnc2c1C#N` (single isomer, unassigned) [Compound 85a]: the Ki on ENPP-1 ECD (setting [3]) turned out to be 0.00604 nM; in test [1] (setting [4]), 0.298 nM.

Take `Cc1nc2ncnn2c(N(C)C)c1Cc1ccc(S(C)(=N)=O)cc1` (stereo not shown) [Compound 1, (4-((7-(dimethylamino)-5-methyl-[1,2,4]triazolo[1,5-a]pyrimidin-6-yl)methyl)phenyl)(imino)(methyl)-λ^6-sulfanone]: the Ki was under 3 nM at ENPP-1 ECD (setting [6]), 0.109 nM at ENPP-1 ECD (setting [3]), 7.47 nM in test [1] (setting [4]) and under 10 nM in test [1] (setting [5]).

For the compound `Cc1nc2ncnn2c(N(C)C)c1Cc1ccc(S(N)(=O)=O)cc1` [Compound 2, 4-((7-(dimethylamino)-5-methyl-[1,2,4]triazolo[1,5-a]pyrimidin-6-yl)methyl)benzenesulfonamide], the Ki is under 3 nM at ENPP-1 ECD (setting [6]), 0.158 nM on ENPP-1 ECD (setting [3]), 14.4 nM in test [1] (setting [4]) and over 10 nM in test [1] (setting [5]).

Regarding `Cc1nc2ncnn2c(N(C)C)c1Cc1ccc(P(=O)(O)O)cc1` [Compound 5, (4-{[7-(dimethylamino)-5-methyl-[1,2,4]triazolo[1,5-a]pyrimidin-6-yl]methyl}phenyl)phosphonic acid], the Ki on ENPP-1 ECD (setting [6]) was under 3 nM; at ENPP-1 ECD (setting [3]) it was 0.851 nM; in test [1] (setting [4]), 7.94 nM; in test [1] (setting [5]), under 10 nM.

As for `Cc1nc2ncnn2c(N2CCCC2)c1Cc1ccc(S(C)(=N)=O)cc1` (stereo not shown) [Compound 8, imino(methyl)(4-((5-methyl-7-(pyrrolidin-1-yl)-[1,2,4]triazolo[1,5-a]pyrimidin-6-yl)methyl)phenyl)-λ^6-sulfanone], the Ki is under 3 nM on ENPP-1 ECD (setting [6]), 0.0718 nM on ENPP-1 ECD (setting [3]), 7.79 nM in test [1] (setting [4]) and under 10 nM in test [1] (setting [5]).

For `Cc1nc2ncnn2c(N2CCCC2)c1Cc1ccc(S(N)(=O)=O)cc1` [Compound 9, 4-((5-methyl-7-(pyrrolidin-1-yl)-[1,2,4]triazolo[1,5-a]pyrimidin-6-yl)methyl)benzenesulfonamide], the Ki at ENPP-1 ECD (setting [6]) is under 3 nM; at ENPP-1 ECD (setting [3]), 0.569 nM; in test [1] (setting [4]) it was 32.4 nM; in test [1] (setting [5]), over 10 nM.

With `Cc1nc2ncnn2c(N2CCC2)c1Cc1ccc(S(C)(=N)=O)cc1` (stereo not shown) [Compound 10, (4-((7-(azetidin-1-yl)-5-methyl-[1,2,4]triazolo[1,5-a]pyrimidin-6-yl)methyl)phenyl)(imino)(methyl)-λ^6-sulfanone], the Ki at ENPP-1 ECD (setting [6]) is 3 to 300 nM; on ENPP-1 ECD (setting [3]), 3.12 nM; in test [1] (setting [4]), 224 nM; in test [1] (setting [5]), over 10 nM.

Regarding `CCN(C)c1c(Cc2ccc(S(C)(=N)=O)cc2)c(C)nc2ncnn12` (stereo not shown) [Compound 12, (4-((7-(ethyl(methyl)amino)-5-methyl-[1,2,4]triazolo[1,5-a]pyrimidin-6-yl)methyl)phenyl)(imino)(methyl)-λ^6-sulfanone], the Ki was under 3 nM at ENPP-1 ECD (setting [6]), 0.479 nM at ENPP-1 ECD (setting [3]), 48.9 nM in test [1] (setting [4]) and over 10 nM in test [1] (setting [5]).

As for `Cc1nc2ncnn2c(N2CCCCC2)c1Cc1ccc(S(C)(=N)=O)cc1` (stereo not shown) [Compound 16, imino(methyl)(4-((5-methyl-7-(piperidin-1-yl)-[1,2,4]triazolo[1,5-a]pyrimidin-6-yl)methyl)phenyl)-λ^6-sulfanone], the Ki is under 3 nM at ENPP-1 ECD (setting [6]), 0.0814 nM on ENPP-1 ECD (setting [3]), 14.9 nM in test [1] (setting [4]) and over 10 nM in test [1] (setting [5]).

Take `Cc1nc2ncnn2c(N2CCCCC2)c1Cc1ccc([S@](C)(=N)=O)cc1` [Compound 16a]: the Ki was under 3 nM at ENPP-1 ECD (setting [2]), 0.0627 nM on ENPP-1 ECD (setting [3]), 11.9 nM in test [1] (setting [4]) and over 10 nM in test [1] (setting [5]).

Turning to `Cc1cc2ncnn2c(N(C)C)c1Cc1ccc(S(C)(=N)=O)cc1` (stereo not shown) [Compound 28, (4-{[5-(dimethylamino)-7-methyl-[1,2,4]triazolo[1,5-a]pyridin-6-yl]methyl}phenyl)(imino)methyl-λ^6-sulfanone], the Ki was under 3 nM at ENPP-1 ECD (setting [6]), under 0.027 nM at ENPP-1 ECD (setting [3]), 1.06 nM in test [1] (setting [4]) and under 10 nM in test [1] (setting [5]).

In the case of `Cc1nc2nccn2c(N(C)C)c1Cc1ccc(S(C)(=N)=O)cc1` (stereo not shown) [Compound 29, (4-{[5-(dimethylamino)-7-methylimidazo[1,2-a]pyrimidin-6-yl]methyl}phenyl)(imino)methyl-λ^6-sulfanone], the Ki is under 3 nM at ENPP-1 ECD (setting [6]), 0.252 nM at ENPP-1 ECD (setting [3]), 12.2 nM in test [1] (setting [4]) and over 10 nM in test [1] (setting [5]).

For `Cc1nc2nccn2c(N(C)C)c1Cc1ccc([S@](C)(=N)=O)cc1` [Compound 29a], the Ki was under 3 nM at ENPP-1 ECD (setting [2]), 0.106 nM on ENPP-1 ECD (setting [3]), 3.15 nM in test [1] (setting [4]) and under 10 nM in test [1] (setting [5]).

`Cc1nc2ncnn2c(N2CCCC2)c1Cc1ccc(P(=O)(O)O)cc1` [Compound 36, (4-{[5-methyl-7-(pyrrolidin-1-yl)-[1,2,4]triazolo[1,5-a]pyrimidin-6-yl]methyl}phenyl)phosphonic acid]: the Ki on ENPP-1 ECD (setting [6]) is under 3 nM; on ENPP-1 ECD (setting [3]), 0.512 nM; in test [1] (setting [4]), 5.68 nM; in test [1] (setting [5]), under 10 nM.

Consider `Cc1nc2ncnn2c(N(C)C)c1-c1ccc2c(c1)CCN(S(N)(=O)=O)C2` [Compound 84, 6-[7-(dimethylamino)-5-methyl-[1,2,4]triazolo[1,5-a]pyrimidin-6-yl]-1,2,3,4-tetrahydroisoquinoline-2-sulfonamide], for which the Ki is over 300 nM at ENPP-1 ECD (setting [6]) and 672 nM at ENPP-1 ECD (setting [3]).

Turning to `Cc1c(Cc2ccc(S(C)(=N)=O)cc2)c(N(C)C)nc2ncnn12` (stereo not shown) [Compound 86, (4-{[5-(dimethylamino)-7-methyl-[1,2,4]triazolo[1,5-a]pyrimidin-6-yl]methyl}phenyl)(imino)methyl-λ^6-sulfanone], in test [1] (setting [4]), the Ki is 8.29 nM.

Take `COc1nc2ncnn2c(N(C)C)c1Cc1ccc([S@](C)(=N)=O)cc1` [Compound 88b]: on ENPP-1 ECD (setting [3]), the Ki is over 15 nM.

For the origin of these results see patent US20240376113A1 (Volastra Therapeutics, Inc., priority 2020, published 2024).
